Assay results from patent US20070117743A1, “New antitumoral compounds” (priority 2003, published 2007).
Where a SMILES comes first, the peptide text is derived from it. Bridges are numbered along the chain shown (N, C = ends). [ ]: non-standard residue; d: D form. The star is where a group is joined. ξ: configuration not given here. Pro(3ξ,4ξ-(CH2)4) = O=C(O)[C@H]1NCC2CCCCC21; Hexanoyl(4S-Me) = CC[C@H](C)CCC(=O)*; d(aIle) = CC[C@H](C)[C@@H](N)C(=O)O; d(aThr) = C[C@@H](O)[C@@H](N)C(=O)O; Orn = NCCC[C@H](N)C(=O)O; Dhb = C/C=C(\N)C(=O)O

How the values were obtained:
Format in all cases: cell-based, human
[1] = test system: LoVo; assay: SRB colorimetric assay of cell growth and viability, LoVo; details: 48 hours exposure, SRB; for CC50: read-out: LC50 LOVO
[2] = test system: K-562; assay: SRB colorimetric assay of cell growth and viability, K-562; details: 48 hours exposure, SRB; for CC50: read-out: LC50 K-562
[3] = test system: SK-MEL-28; assay: SRB colorimetric assay of cell growth and viability, SK-MEL-28; details: 48 hours exposure, SRB; for CC50: read-out: LC50 MEL-28
[4] = test system: IGROV-1; assay: SRB colorimetric assay of cell growth and viability, IGROV-1; details: 48 hours exposure, SRB
[5] = test system: HeLa-APL; assay: SRB colorimetric assay of cell growth and viability, HeLa-APL; details: 48 hours exposure, SRB; for CC50: read-out: LC50 HELA-APL
[6] = test system: DU-145; assay: SRB colorimetric assay of cell growth and viability, DU-145; details: 48 hours exposure, SRB
[7] = test system: IGROV-ET; assay: SRB colorimetric assay of cell growth and viability, IGROV-ET; details: 48 hours exposure, SRB; for CC50: read-out: LC50 IGROV-ET
[8] = test system: HT-29; assay: SRB colorimetric assay of cell growth and viability, HT-29; details: 48 hours exposure, SRB; for GI50: read-out: GI50 HT-29; for CC50: read-out: LC50 HT-29
[9] = test system: A-549; assay: SRB colorimetric assay of cell growth and viability, A-549; details: 48 hours exposure, SRB; for GI50: read-out: GI50 A-549; for CC50: read-out: LC50 A-549
[10] = test system: PANC-1; assay: SRB colorimetric assay of cell growth and viability, PANC-1; details: 48 hours exposure, SRB; for CC50: read-out: LC50 PANC-1
[11] = test system: SK-BR-3; assay: SRB colorimetric assay of cell growth and viability, SK-BR-3; details: 48 hours exposure, SRB
From the text: The finality of this assay is to interrupt the growth of a “in vitro” tumor cell culture by means a continued exhibition of the cells to the sample to be testing.
This form of the assay employs 96 well cell culture microplates of 9 mm diameter (Faircloth, 1988; Mosmann, 1983). Most of the cell lines are obtained from American Type Culture Collection (ATCC) derived from different human cancer types.
Cells are maintained in RPMI 1640 10% FBS, supplemented with 0.1 g/l penicillin and 0.1 g/l streptomycin sulfate and then incubated at 37° C., 5% CO2 and 98% humidity. For the experiments, cells were harvested from subconfluent cultures using trypsin and resuspended in fresh medium before plating.
Cells are seeded in 96 well microtiter plates, at 5×10^3 cells per well in aliquots of 195 μL medium, and they are allowed to attach to the plate surface by growing in drug free medium for 18 hours. Afterward, samples are added in aliquots of 5 μL in a ranging from 10 to 10^−8 μg/mL, dissolved in DMSO:EtOH:PBS (0.5:0.5:99). After 48 hours exposure, the antitumor effect are measured by the SRB methodology: cells are fixed by adding 50 μL of cold 50% (wt/vol) trichloroacetic acid (TCA) and incubating for 60 minutes at 4° C. Plates are washed with deionized water and dried. One hundred μL of SRB solution (0.4% wt/vol in 1% acetic acid) is added to each microtiter well and incubated for 10 minutes at room temperature. Unbound SRB is removed by washing with 1% acetic acid. Plates are air dried and bound stain is solubilized with Tris buffer. Optical densities are read on a automated spectrophotometric plate reader at a single wavelength of 490 nm.
The values for mean+/− SD of data from triplicate wells are calculated. Some parameters for cellular responses can be calculated: GI=growth inhibition, TGI=total growth inhibition (cytostatic effect) and LC=cell killing (cytotoxic effect).

[12] = test system: HeLa; assay: SRB colorimetric assay of cell growth and viability, HeLa; details: 48 hours exposure, SRB; for CC50: read-out: LC50 HELA
[13] = test system: LoVo-Dox; assay: SRB colorimetric assay of cell growth and viability, LoVo-Dox; details: 48 hours exposure, SRB; for CC50: read-out: LC50 LOVO-DOX
Summary of the method: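 Human tumor cells seeded at 5×10^3/well in RPMI 1640 10% FBS, attached 18 hours, then exposed 48 hours to compound (10 to 10^−8 μg/mL). TCA-fixed, SRB-stained, OD 490 nm; triplicates give GI, TGI and LC values.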

| SMILES | GI50 [1] [nM] | TGI LOVO [1] [Molar] | CC50 [1] [nM] | GI50 [2] [nM] | TGI K-562 [2] [Molar] | CC50 [2] [nM] | GI50 [3] [nM] | TGI MEL-28 [3] [Molar] | CC50 [3] [nM] | GI50 [4] [nM] | LC50 (concentration causing 50% net cell killing) [4] [nM] | TGI IGROV [4] [Molar] | GI50 [5] [nM] | TGI HELA-APL [5] [Molar] | CC50 [5] [nM] | GI50 [6] [nM] | LC50 (concentration causing 50% net cell kill) [6] [nM] | TGI DU-145 [6] [Molar] | GI50 [7] [nM] | TGI IGROV-ET [7] [Molar] | further results |
| --- | --- | --- | --- | --- | --- | --- | --- | --- | --- | --- | --- | --- | --- | --- | --- | --- | --- | --- | --- | --- | --- |
| C/C=C1\NC(=O)[C@H](Cc2ccc(O)cc2)NC(=O)[C@@H](C(C)C)NC(=O)[C@@H]([C@@H](C)CC)NC(=O)[C@H](NC(=O)[C@H](NC(=O)[C@H](CCCN)NC(=O)[C@H]2CCCN2C(=O)[C@H](NC(=O)[C@@H](NC(=O)[C@@H](NC(=O)[C@H](NC(=O)CC[C@@H](C)CC)C(C)C)[C@@H](C)O)C(C)C)C(C)C)[C@@H](C)CC)[C@@H](C)OC(=O)[C@H](C(C)C)NC1=O [Compound 78, [Tyr^3, (4S)-MeHex^14]-KF] ({Hexanoyl(4S-Me)}-[dV]TV[dV][dP][Orn][d(aIle)][d(aThr)][d(aIle)][dV]Y[Dhb]V; ester 8-C) | 390 | 1.16E−06 | 2710 | 1650 | 3.78E−06 | 6690 | 1120 | 2.01E−06 | 3590 | 877 | 3330 | 1.71E−06 | 964 | 1.81E−06 | 3420 | 1270 | 3760 | 2.18E−06 | 930 | 1.79E−06 | CC50 [7]: 3420 nM; TGI HT-29 [8]: 1.99E−06 Molar; GI50 [8]: 1080 nM; CC50 [8]: 3700 nM; TGI A-549 [9]: 2.23E−06 Molar; GI50 [9]: 1270 nM; CC50 [9]: 3920 nM; GI50 [10]: 2560 nM; TGI PANC-1 [10]: 6.69E−06 Molar; CC50 [10]: 6690 nM; GI50 [11]: 266 nM; LC50 [11]: 2580 nM; TGI SK-BR-3 [11]: 1.02E−06 Molar; GI50 [12]: 1160 nM; TGI HELA [12]: 1.97E−06 Molar; CC50 [12]: 3360 nM; GI50 [13]: 135 nM; TGI LOVO-DOX [13]: 2.89E−07 Molar; CC50 [13]: 621 nM |
| C/C=C1\NC(=O)[C@@H]2C3CCCCC3CN2C(=O)[C@@H](C(C)C)NC(=O)[C@@H]([C@@H](C)CC)NC(=O)[C@H](NC(=O)[C@H](NC(=O)[C@H](CCCN)NC(=O)[C@H]2CCCN2C(=O)[C@H](NC(=O)[C@@H](NC(=O)[C@@H](NC(=O)[C@H](NC(=O)CC[C@@H](C)CC)C(C)C)[C@@H](C)O)C(C)C)C(C)C)[C@@H](C)CC)[C@@H](C)OC(=O)[C@H](C(C)C)NC1=O (stereo partly drawn) [Compound 79, [Oic^3, (4S)-MeHex^14]-KF] ({Hexanoyl(4S-Me)}-[dV]TV[dV][dP][Orn][d(aIle)][d(aThr)][d(aIle)][dV][Pro(3ξ,4ξ-(CH2)4)][Dhb]V; ester 8-C) | 591 | 1.40E−06 | 3020 | 1710 | 4.02E−06 | ≥ 6750 | 2310 | 6.75E−06 | ≥ 6750 | 1910 | 5550 | 3.25E−06 | 4800 | 6.75E−06 | ≥ 6750 | 6010 | ≥ 6750 | 6.75E−06 | 1980 | 4.28E−06 | CC50 [7]: ≥ 6750 nM; TGI HT-29 [8]: 2.43E−06 Molar; GI50 [8]: 1440 nM; CC50 [8]: 4090 nM; TGI A-549 [9]: 6.75E−06 Molar; GI50 [9]: 4420 nM; CC50 [9]: ≥ 6750 nM; GI50 [10]: ≥ 6750 nM; TGI PANC-1 [10]: 6.75E−06 Molar; CC50 [10]: ≥ 6750 nM; GI50 [11]: 796 nM; LC50 [11]: 3430 nM; TGI SK-BR-3 [11]: 1.65E−06 Molar; GI50 [12]: 2690 nM; TGI HELA [12]: 6.75E−06 Molar; CC50 [12]: ≥ 6750 nM; GI50 [13]: 387 nM; TGI LOVO-DOX [13]: 1.15E−06 Molar; CC50 [13]: 2560 nM |
